Legend:
h5-HT2A = h5-HT2A (Homo sapiens, UniProt P28223); test: β-arrestin 2 recruitment (NanoBiT), h5-HT2A; format: cell-based; set-up: expressed in transfected cells; details: for Emax: read-out: β-arrestin 2 recruitment Emax h5-HT2A (95% CI)
Procedure: Activation of h5-HT2A, h5-HT2B, and h5-HT2C receptors was examined by measuring the accumulation of inositol monophosphate (IP1) as a marker for Gαq-mediated signaling. For h5-HT2A, additional assays measured β-arrestin 2 recruitment and arachidonic acid release, the latter serving as a marker of Gαi/o,12/13 activation. The methodology is described in detail in the Supplementary information.
The IC50 values from the radioligand binding assays were determined by nonlinear regression, using three independent concentration-response curves fitted to a one-site model. The Cheng-Prusoff equation was used to calculate Kᵢ values for the competing ligands. EC50 values were determined by applying nonlinear regression to concentration-response curves. Bias factors (β) were calculated based on the relative intrinsic activity approach. More detailed information can be found in the Supplementary information. Mean values for total number of HTR, change in body temperature from pre to post session (Δ°C), and total distance traveled (cm) for each drug dose were compared (p < 0.05) via Welch’s ANOVA with Dunnett’s T3 post test, comparing all doses to respective vehicle controls (0 mg/kg). Welch’s ANOVA with Dunnett’s T3 post test was also used to compare drug concentrations, but the data were compared to DOM in this case. Dose–response relationships for HTR and locomotor activities were plotted using bell-shaped curve fits, while temperature change data were plotted using four-parameter non-linear regression curve fits. The ascending phase of the HTR curve for each drug was used to determine ED50 potency values from four parameter non-linear regression fits. For combined DOM and DOAM administration, the plasma, brain tissue, and brain dialysate drug concentrations were compared using paired t-tests (p < 0.05). […]
the β-arrestin 2 molecule in the NanoBiT system) were seeded at a density of 50,000 cells per well in poly - D-lysine-coated 96-well plates in medium containing 10% dialyzed FBS. The plate was then incubated at […]
The following day, the cells were washed twice with 150 µL HBSS, and 100 µL HBSS was subsequently added to each well. Thereafter, 25 µL of substrate (1 :20 diluted in buffer) was added, and […]
agonist solutions was added, and the signal was monitored for 2 h. Drug dilutions in HBSS were made from 10 mM stock solutions in DMSO , yielding concentration ranges from 10 µM to 10 pM. All concentrations were run in duplicate and included the appropriate solvent controls. Efficacy was normalized to 5 -HT […]
3.2.3 Arachidonic acid release
Arachidonic acid release was assessed as a marker for Gαi/o,12/13 mediated signaling.
NIH/3T3 cells stably expressing the 5 -HT2A receptor were seeded at a density of 75,000 cells per well in a poly-D-lysine-coated 48-well plate. The following day, the cells were labeled with 300 μL [ 3H]arachidonic […]
Thereafter, the cells were washed 3 times for
(10 mM) of test substances were prepared in DMSO. The final dilution series of test substances dissolved […]
Thereafter, the plate was put on ice, and 400 μL incubation supernatant per well was transferred int o scintillation vials containing scintillation fluid (Ultimagold, Perkin Elmer, Schwerzenbach, Switzerland). The remaining supernatant was removed, and the cells were lysed with 1% sodium dodecyl sulfate lysis buffer. The obtained cell lysate was transferred into scintillation vials containing scintillation fluid. Radioactivity was measured on a liquid scintillation counter (Packard 1900 TR Tri-Carb Liquid Scintillation Counter; Packard Instrument Company). Efficacy was normalized to 5-HT activity.
3.2.4 Calculation of bias factors […]
using 5-HT as the reference agonist.
RApathway = EC50, i = EC50, ref×Emax,i […]

C57BL/6 J mice = test: Body temperature change in mice (dose-response sessions); format: in vivo, mouse; details: pre to post 30-min session, mean ± SEM
Procedure: Behavioral studies were conducted as previously described with minor modifications. Male C57BL/6 J mice (The Jackson Laboratory #000664, 24 mice/drug) were purchased at 8 weeks old, group housed for acclimation (3–5 per cage for 1–2 weeks) under a 12:12 light:dark cycle (07:00 local time = lights on), with ad libitum access to food and water at the NIDA IRP facilities in Baltimore, MD, USA. All experiments were approved by the NIDA IRP Animal Care and Use Committee. After acclimation to the vivarium facilities, each mouse was briefly anesthetized with isoflurane and a temperature transponder (14 × 2 mm, model IPTT-300, Bio Medic Data Systems, Inc., Seaford, DE, USA) was implanted subcutaneously (s.c.) on the back, posterior to the shoulder blades. After the implant, mice were single housed and allowed one week recovery prior to the start of experiments. […] Drugs were randomly assigned and administered s.c. as the weight of the form used at an injection volume of 0.01 mL/g body weight.
During experimental testing, mice were tested once every 1–2 weeks to avoid potential tolerance to behavioral effects of the test drugs and were tested 2–3 times in total per drug. Each test session began with a brief 5 min acclimation period to the testing arenas, followed by recording baseline body temperature using a handheld wand that was sensitive to the signals emitted from the s.c. transponder. After this, mice were injected s.c. with appropriate doses of test drug and returned to the chambers for a 30-min test session. During the dose-response sessions, locomotor activity was continuously recorded using open field chambers with photobeam arrays (Coulbourn Instruments, Holliston, MA, USA) that were modified with cylindrical inserts and custom floor panels that also allowed video recordings of each mouse to later quantify HTR activity (GoPro Hero 7 camera; 960p resolution at 120 frames per second). Videos for each mouse were analyzed post session using commercially available software used to quantify HTR as previously described.
Data analysis was performed with Prism software (version 10.1.2, GraphPad Software, Boston, MA, USA). The IC50 values from the radioligand binding assays were determined by nonlinear regression, using three independent concentration-response curves fitted to a one-site model. The Cheng-Prusoff equation was used to calculate Kᵢ values for the competing ligands. EC50 values were determined by applying nonlinear regression to concentration-response curves. Bias factors (β) were calculated based on the relative intrinsic activity approach. More detailed information can be found in the Supplementary information. Mean values for total number of HTR, change in body temperature from pre to post session (Δ°C), and total distance traveled (cm) for each drug dose were compared (p < 0.05) via Welch’s ANOVA with Dunnett’s T3 post test, comparing all doses to respective vehicle controls (0 mg/kg). Welch’s ANOVA with Dunnett’s T3 post test was also used to compare drug concentrations, but the data were compared to DOM in this case. Dose–response relationships for HTR and locomotor activities were plotted using bell-shaped curve fits, while temperature change data were plotted using four-parameter non-linear regression curve fits. The ascending phase of the HTR curve for each drug was used to determine ED50 potency values from four parameter non-linear regression fits. For combined DOM and DOAM administration, the plasma, brain tissue, and brain dialysate drug concentrations were compared using paired t-tests (p < 0.05). Ratios were compared using Holm-Sidak’s post hoc test following a repeated-measures one-way ANOVA (F (1.709, 6.835) = 70.80; p < 0.0001).
Locomotor activity and body temperature were also assessed to monitor other pharmacological effects of the drugs that may impact the HTR. […]

Chain of h5-HT2A (P28223 whole entry, looked up): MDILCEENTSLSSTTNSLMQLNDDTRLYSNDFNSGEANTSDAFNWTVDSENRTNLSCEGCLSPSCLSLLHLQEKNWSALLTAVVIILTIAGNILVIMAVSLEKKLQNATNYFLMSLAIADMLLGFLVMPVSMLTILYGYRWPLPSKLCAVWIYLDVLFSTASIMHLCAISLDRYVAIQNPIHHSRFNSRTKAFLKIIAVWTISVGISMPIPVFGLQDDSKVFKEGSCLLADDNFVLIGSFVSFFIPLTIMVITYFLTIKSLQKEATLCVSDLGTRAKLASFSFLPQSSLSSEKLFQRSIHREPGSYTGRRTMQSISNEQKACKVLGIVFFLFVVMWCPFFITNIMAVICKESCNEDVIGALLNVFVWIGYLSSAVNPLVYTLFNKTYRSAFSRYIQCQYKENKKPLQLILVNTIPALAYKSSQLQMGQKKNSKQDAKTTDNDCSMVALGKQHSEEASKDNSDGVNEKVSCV

| SMILES | Emax (h5-HT2A) | ΔTemperature (C57BL/6 J mice; 0.03 mg/kg s.c.) | ΔTemperature (C57BL/6 J mice; 0.1 mg/kg s.c.) | ΔTemperature (C57BL/6 J mice; 0.3 mg/kg s.c.) | ΔTemperature (C57BL/6 J mice; 1 mg/kg s.c.) | ΔTemperature (C57BL/6 J mice; 3 mg/kg s.c.) | ΔTemperature (C57BL/6 J mice; 10 mg/kg s.c.) | ΔTemperature (C57BL/6 J mice; 30 mg/kg s.c.) | EC50 (h5-HT2A) | Agonist type in the β-arrestin 2 recruitment assay at the 5-HT2A receptor (h5-HT2A) | ΔTemperature (C57BL/6 J mice; 0.01 mg/kg s.c.) |
| --- | --- | --- | --- | --- | --- | --- | --- | --- | --- | --- | --- |
| COc1ccc(OC)c(CC(C)N)c1.Cl (centres unmarked) [2,5-DMA, 2,5-Dimethoxyamphetamine hydrochloride] | 83% | 0.4 ± 0.1 °C | 0.3 ± 0.1 °C | 0.5 ± 0.1 °C | 0.2 ± 0.1 °C | 0.2 ± 0.2 °C | -0.9 ± 0.2 °C | -4.0 ± 0.5 °C |  |  |  |
| CCCCCc1cc(OC)c(CC(C)N)cc1OC (centres unmarked) [DOAM, 4-amyl-2,5-dimethoxyamphetamine] | 85% | 0.0 ± 0.1 °C | 0.0 ± 0.1 °C | -0.3 ± 0.2 °C | -0.1 ± 0.2 °C | -0.2 ± 0.1 °C | -0.2 ± 0.2 °C | -3.9 ± 0.4 °C | 56 nM |  |  |
| CCCCc1cc(OC)c(CC(C)N)cc1OC (centres unmarked) [DOBU, 4-butyl-2,5-dimethoxyamphetamine] | 96% | -0.1 ± 0.1 °C | -0.1 ± 0.2 °C | 0.1 ± 0.1 °C | -0.4 ± 0.1 °C | -0.3 ± 0.2 °C | -1.7 ± 0.6 °C | -5.5 ± 0.4 °C | 24 nM | full agonists |  |
| CCc1cc(OC)c(CC(C)N)cc1OC (centres unmarked) [DOET, 4-ethyl-2,5-dimethoxyamphetamine] | 99% |  |  |  |  |  |  |  | 12 nM | full agonists |  |
| COc1cc(CC(C)N)c(OC)cc1C (centres unmarked) [DOM, 4-methyl-2,5-dimethoxyamphetamine] | 97% | -0.1 ± 0.1 °C | 0.0 ± 0.1 °C | -0.1 ± 0.1 °C | 0.1 ± 0.1 °C | -0.2 ± 0.1 °C | -2.2 ± 0.8 °C | -6.5 ± 0.2 °C | 55 nM | full agonists |  |
| CCCc1cc(OC)c(CC(C)N)cc1OC.Cl (centres unmarked) [DOPR, 4-propyl-2,5-dimethoxyamphetamine hydrochloride] | 105% | 0.1 ± 0.1 °C | 0.1 ± 0.2 °C | 0.0 ± 0.2 °C | -0.1 ± 0.1 °C | -3.0 ± 0.6 °C | -4.9 ± 0.5 °C |  | 9.3 nM | full agonists | 0.3 ± 0.2 °C |

— PMC12916490 (Molecular Psychiatry, 2025)
